Laboratory results as given in patent US9125915B2, “Antitumor agent” (Mitsubishi Tanabe Pharma Corporation, priority 2007, dated 2015).
Read-outs that look alike come from different tables or passages of the source.

What was measured:
BRD4 = BRD4 (Homo sapiens (Human), UniProt O60885); assay: Binding inhibitory test of acetylated histone H4 and BRD4 (TR-FRET); details: CHO cell lysate with Flag-BRD4, biotin-labeled acetylated histone H4 peptide
Protocol: An expression vector containing cDNA of BRD2, 3 and 4 added with Flag-tag was transfected to CHO cell, and a cell lysate was prepared 24 hr later. Binding of acetylated histone H4 and BRD was confirmed by a Time Resolved Fluorescence Resonance Energy Transfer (TR-FRET) method. To a 384-well white plate (manufactured by Coaster) were added 50 nmol/L biotin-labeled acetylated histone H4 peptide (manufactured by Upstate) and a serially diluted test compound.

MV4-11 = assay: Growth suppressive activity test against cancer cells (WST-8), MV4-11; format: cell-based, human
Protocol: (§1) Using RPMI 1640 medium (manufactured by SIGMA) supplemented with 10% fetal bovine serum, human promyelocytic leukemia-derived cell line HL-60, human acute lymphoblastic leukemia-derived cell line MOLT4, human Burkitt's lymphoma-derived cell line Daudi, and human multiple myeloma-derived cell line RPMI-8226 were respectively cultured at 37° C., 5% CO2. In addition, using ISKOV medium (manufactured by SIGMA) supplemented with 10% fetal bovine serum, human chronic myeloid leukemia-derived cell line MV4-11 was cultured at 37° C., 5% CO2. Moreover, using DMEM/F-12 medium (manufactured by SIGMA) supplemented with 10% fetal bovine serum, human lung cancer cell-derived cell line EBC-1, human hepatocellular cancer-derived cell line Kim-1, human colorectal cancer-derived cell line HCT-116, human prostate cancer-derived cell line PC-3, human ovarian cancer-derived cell line A2780, and human osteosarcoma-derived cell line Saos2 were respectively cultured at 37° C., 5% CO2. These cells were plated on a 96 well plate, and cultured for 1 day. Thereto was added a compound diluted with the medium to a final concentration of 0.0003-10 μm (final DMSO concentration, 0.4%). After culture for 3 more days, WST-8 (0.16 mg/mL) was added to the culture medium and the cells were cultured for 2 hr. The absorbance at 650 nm was subtracted from the absorbance at 450 nm. The growth suppressive activity was shown by a decrease rate of the absorbance of the compound addition group to that of the compound non-addition group, and GI50 value was determined from a dose-reaction curve plotting a decrease rate of the absorbance obtained by changing the compound concentration and the compound concentrations.

HL-60 = assay: Growth suppressive activity test against cancer cells (WST-8), HL-60; format: cell-based; details: Homo sapiens, 72 h, HL-60, promyelocytic leukemia, 3 days culture, read-out: cell proliferation suppressive activity GI50
Protocol: as §1, with “These cells were plated on a 96 well plate, and cultured for 1 day. Thereto was added a compound diluted with the medium to a final concentration of 0.0003-10 μm (final DMSO concentration, 0.4%). After culture for 3 more days, WST-8 (0.16 mg/mL) was added to the culture medium and the cells were cultured for 2 hr.” left out

Daudi = assay: Growth suppressive activity test against cancer cells (WST-8), Daudi; format: cell-based; details: Homo sapiens, 72 h, Burkitt's lymphoma, 3 days culture, read-out: cell proliferation suppressive activity GI50
Protocol: as §1, with “These cells were plated on a 96 well plate, and cultured for 1 day. Thereto was added a compound diluted with the medium to a final concentration of 0.0003-10 μm (final DMSO concentration, 0.4%). After culture for 3 more days, WST-8 (0.16 mg/mL) was added to the culture medium and the cells were cultured for 2 hr.” left out

RPMI-8226 = assay: Growth suppressive activity test against cancer cells (WST-8), RPMI-8226; format: cell-based; details: Homo sapiens, 72 h, RPMI-8226, multiple myeloma, 3 days culture, read-out: cell proliferation suppressive activity GI50
Protocol: as §1, with “These cells were plated on a 96 well plate, and cultured for 1 day. Thereto was added a compound diluted with the medium to a final concentration of 0.0003-10 μm (final DMSO concentration, 0.4%). After culture for 3 more days, WST-8 (0.16 mg/mL) was added to the culture medium and the cells were cultured for 2 hr.” left out

Kim-1 = assay: Growth suppressive activity test against cancer cells (WST-8), Kim-1; format: cell-based; details: Homo sapiens, 72 h, Kim-1, hepatocellular cancer, 3 days culture, read-out: cell proliferation suppressive activity GI50
Protocol: as §1, with “These cells were plated on a 96 well plate, and cultured for 1 day. Thereto was added a compound diluted with the medium to a final concentration of 0.0003-10 μm (final DMSO concentration, 0.4%). After culture for 3 more days, WST-8 (0.16 mg/mL) was added to the culture medium and the cells were cultured for 2 hr.” left out

MOLT-4 = assay: Growth suppressive activity test against cancer cells (WST-8), MOLT-4; format: cell-based; details: Homo sapiens, 72 h, MOLT-4, acute lymphoblastic leukemia, 3 days culture, read-out: cell proliferation suppressive activity GI50
Protocol: as §1, with “These cells were plated on a 96 well plate, and cultured for 1 day. Thereto was added a compound diluted with the medium to a final concentration of 0.0003-10 μm (final DMSO concentration, 0.4%). After culture for 3 more days, WST-8 (0.16 mg/mL) was added to the culture medium and the cells were cultured for 2 hr.” left out

A-2780 = assay: Growth suppressive activity test against cancer cells (WST-8), A-2780; format: cell-based; details: Homo sapiens, A2780, 72 h, A-2780, ovarian cancer, 3 days culture, read-out: cell proliferation suppressive activity GI50
Protocol: as §1, with “These cells were plated on a 96 well plate, and cultured for 1 day. Thereto was added a compound diluted with the medium to a final concentration of 0.0003-10 μm (final DMSO concentration, 0.4%). After culture for 3 more days, WST-8 (0.16 mg/mL) was added to the culture medium and the cells were cultured for 2 hr.” left out

PC-3 = assay: Growth suppressive activity test against cancer cells (WST-8), PC-3; format: cell-based; details: Homo sapiens, 72 h, PC-3, prostate cancer, 3 days culture, read-out: cell proliferation suppressive activity GI50
Protocol: as §1, with “These cells were plated on a 96 well plate, and cultured for 1 day. Thereto was added a compound diluted with the medium to a final concentration of 0.0003-10 μm (final DMSO concentration, 0.4%). After culture for 3 more days, WST-8 (0.16 mg/mL) was added to the culture medium and the cells were cultured for 2 hr.” left out

EBC-1 = assay: Growth suppressive activity test against cancer cells (WST-8), EBC-1; format: cell-based; details: Homo sapiens, 72 h, EBC-1, non-small cell lung cancer, 3 days culture, read-out: cell proliferation suppressive activity GI50
Protocol: as §1, with “These cells were plated on a 96 well plate, and cultured for 1 day. Thereto was added a compound diluted with the medium to a final concentration of 0.0003-10 μm (final DMSO concentration, 0.4%). After culture for 3 more days, WST-8 (0.16 mg/mL) was added to the culture medium and the cells were cultured for 2 hr.” left out

Saos2 = assay: Growth suppressive activity test against cancer cells (WST-8), Saos2; format: cell-based; details: Homo sapiens, SAOS-2, 72 h, Saos2, osteosarcoma, 3 days culture, read-out: cell proliferation suppressive activity GI50
Protocol: as §1, with “These cells were plated on a 96 well plate, and cultured for 1 day. Thereto was added a compound diluted with the medium to a final concentration of 0.0003-10 μm (final DMSO concentration, 0.4%). After culture for 3 more days, WST-8 (0.16 mg/mL) was added to the culture medium and the cells were cultured for 2 hr.” left out

HCT-116 = assay: Growth suppressive activity test against cancer cells (WST-8), HCT-116; format: cell-based; details: Homo sapiens, 72 h, HCT-116, colorectal cancer, 3 days culture, read-out: cell proliferation suppressive activity GI50
Protocol: as §1, with “These cells were plated on a 96 well plate, and cultured for 1 day. Thereto was added a compound diluted with the medium to a final concentration of 0.0003-10 μm (final DMSO concentration, 0.4%). After culture for 3 more days, WST-8 (0.16 mg/mL) was added to the culture medium and the cells were cultured for 2 hr.” left out

[1] = MV4-11, 3 days culture, read-out: growth suppressive activity on MV4-11 GI50
[2] = Homo sapiens, 72 h, MV4-11, 3 days culture, read-out: growth suppressive activity on MV4-11 GI50
[3] = Homo sapiens, 72 h, MV4-11, chronic myeloid leukemia, 3 days culture, read-out: cell proliferation suppressive activity GI50

| SMILES | IC50 (BRD4) [nM] | GI50 (MV4-11; [1]) [nM] | other results |
| --- | --- | --- | --- |
| COc1ncccc1NC(=O)C[C@@H]1N=C(c2ccc(Cl)cc2)c2c(sc(C)c2C)-n2c(C)nnc21 [compound 18] | 147 | 48 |  |
| COC(=O)C[C@@H]1N=C(c2ccc(NCc3ccccc3)cc2)c2c(sc(C)c2C)-n2c(C)nnc21 [compound 9] | 73.6 | 39 |  |
| Cc1sc2c(c1C)C(c1ccc(Cl)cc1)=NC(CC(=O)Nc1ccc(N)cc1)c1nnc(C)n1-2 (stereo not drawn) [compound 15] | 120 | 34 |  |
| COC(=O)C[C@@H]1N=C(c2ccc(NC(=O)CCc3ccccc3)cc2)c2c(sc(C)c2C)-n2c(C)nnc21 [compound 10, methyl (S)-{2,3,9-trimethyl-4-[4-(3-phenylpropionylamino)phenyl]-6H-thieno[3,2-f][1,2,4]triazolo[4,3-a][1,4]diazepin-6-yl}acetate] | 47.1 |  | GI50 (MV4-11; [2]): 7 nM |
| COC(=O)C[C@@H]1N=C(c2ccc(Nc3c(F)cc(F)cc3F)cc2)c2c(sc(CO)c2C)-n2c(C)nnc21 [compound 4] | 77.2 | 95 |  |
| COc1ccc(NC(=O)C[C@@H]2N=C(c3ccc(Cl)cc3)c3c(sc(C)c3C)-n3c(C)nnc32)cn1 [compound 16] | 116 | 28 |  |
| CNC(=O)CC1N=C(c2ccc(Cl)cc2)c2c(sc(C)c2C)-n2c(C)nnc21 (stereo not drawn) [compound 13] | 17.3 | 22 |  |
| COC(=O)C[C@@H]1N=C(c2ccc(Nc3ccccc3)cc2)c2c(sc(C)c2C)-n2c(C)nnc21 [compound 8, methyl (S)-{2,3,9-trimethyl-4-(4-phenylaminophenyl)-6H-thieno[3,2-f][1,2,4]triazolo[4,3-a][1,4]diazepin-6-yl}acetate] |  |  | GI50 (MV4-11; [2]): 9 nM |
| COC(=O)C[C@@H]1N=C(c2ccc(Cl)cc2)c2c(sc(C)c2C)-n2c(C)nnc21 [compound 6] | 18.2 | 26 |  |
| Cc1sc2c(c1C)C(c1ccc(Cl)cc1)=N[C@@H](CC(=O)Nc1ccc(O)cc1)c1nnc(C)n1-2 [Compound 1, (S)-2-[4-(4-chlorophenyl)-2,3,9-trimethyl-6H-thieno[3,2-f][1,2,4]triazolo[4,3-a][1,4]diazepin-6-yl]-N-(4-hydroxyphenyl)acetamide] |  |  | GI50 (HL-60): 149 nM; GI50 (MV4-11; [3]): 60.7 nM; GI50 (Daudi): 611 nM; GI50 (RPMI-8226): 130 nM; GI50 (Kim-1): 569 nM; GI50 (MOLT-4): 80 nM; GI50 (A-2780): 619 nM; GI50 (PC-3): 1030 nM; GI50 (EBC-1): 491 nM; GI50 (Saos2): 481 nM; GI50 (HCT-116): 563 nM |
| COC(=O)C[C@@H]1N=C(c2ccc(-c3cccc(C#N)c3)cc2)c2c(sc(C)c2C)-n2c(C)nnc21 [Compound 2, methyl (S)-{4-(3′-cyanobiphenyl-4-yl)-2,3,9-trimethyl-6H-thieno[3,2-f][1,2,4]triazolo[4,3-a][1,4]diazepin-6-yl}acetate] | 121 |  | GI50 (HL-60): 7 nM; GI50 (MV4-11; [2]): 19 nM; GI50 (MV4-11; [3]): 19 nM; GI50 (Daudi): 67.4 nM; GI50 (RPMI-8226): 69.4 nM; GI50 (Kim-1): 104 nM; GI50 (MOLT-4): 106 nM; GI50 (A-2780): 130 nM; GI50 (PC-3): 199 nM; GI50 (EBC-1): 207 nM; GI50 (Saos2): 269 nM; GI50 (HCT-116): 356 nM |
| Cc1sc2c(c1C)C(c1ccc(Cl)cc1)=NC(CC(=O)NCCO)c1nnc(C)n1-2 (stereo not drawn) [compound 14] |  | 42 |  |
| CCOC(=O)C[C@@H]1N=C(c2ccc(Nc3cccnc3)cc2)c2c(sc(C)c2C)-n2c(C)nnc21 [compound 3] | 54.9 | 20 |  |
| CONC(=O)C[C@@H]1N=C(c2ccc(Cl)cc2)c2c(sc(C)c2C)-n2c(C)nnc21 [compound 17] | 12.8 | 14 |  |
| Cc1sc2c(c1C)C(c1ccc(Cl)cc1)=NC(CC(=O)Nc1cccnc1)c1nnc(C)n1-2 (stereo not drawn) [compound 12] | 108 | 30 |  |
| CCOC(=O)C[C@@H]1N=C(c2ccc(N(C)c3ccc(F)cc3)cc2)c2c(sc(C)c2C)-n2c(C)nnc21 [compound 11] | 225 | 95 |  |
| COC(=O)C[C@@H]1N=C(c2ccc(Cl)cc2)c2c(sc(Cl)c2C)-n2c(C)nnc21 [compound 5] | 54.2 | 73 |  |
| COC(=O)C[C@@H]1N=C(c2ccc(-c3ccc(OC)cc3)cc2)c2c(sc(CO)c2C)-n2c(C)nnc21 [compound 7] | 113 | 55 |  |
